Measurements reported in US20250281481A1, “NALTREXONE FOR BOOSTING THE THERAPEUTIC UTILTY OF 5-HT RECEPTOR AGONISTS” (LDN Pharma Limited, priority 2021, published 2025).

Tests used:
Type in all cases: cell-based, human
[1] = system: 5-HT receptor 3A, transcript variant 1, mRNA (HTR3A); test: Microarray gene expression in CD3+ lymphocytes, HTR3A transcript variant 1; settings: naltrexone 10 nM, 4 h, probe 1681492
Description: (§1) CD3+ lymphocytes were isolated from the blood of haematologically normal volunteers. Cells placed into 25 cm^3 flasks at a concentration of 1×10^6/ml, and left to equilibrate in an incubator with a humidified atmosphere and 5% CO2 in air at 37° C. […] RNA extraction was performed using Trizol according to standard procedures, before being processed for microarray analysis according to the standard methodologies. Briefly, equal amounts of biotinylated cRNA was hybridised to the Illumina human HT12-v3 arrays for 18 h and subsequently processed according to manufacturer's instructions before scanning on an Illumina BeadArray Reader. The image data were processed using default values in GenomeStudio v2009.1 with imputation of missing data, before loading onto GeneSpring v9.0 for data normalisation and filtering. Data analyses were performed using Excel software, and the ratio of gene expression signals in treated vs. untreated calculated.

[2] = system: mRNA for one or more of 5-HT receptor proteins; test: Microarray gene expression in CD3+ lymphocytes, overall statement; settings: both higher dose and low dose naltrexone, 4 h
Description: as §1

[3] = system: 5-HT receptor 3A, transcript variant 2, mRNA (HTR3A); test: Microarray gene expression in CD3+ lymphocytes, HTR3A transcript variant 2; settings: 4 h, probe 2371079
Description: as §1

[4] = system: 5-HT receptor 2B, mRNA (HTR2B); test: Microarray gene expression in CD3+ lymphocytes, HTR2B; settings: 4 h, probe 1735764
Description: as §1

[5] = system: 5-HT receptor 4, transcript variant a, mRNA (HTR4); test: Microarray gene expression in CD3+ lymphocytes, HTR4 transcript variant a; settings: 4 h, probe 1676350
Description: as §1

[6] = system: 5-HT receptor 4, transcript variant hb, mRNA (HTR4); test: Microarray gene expression in CD3+ lymphocytes, HTR4 transcript variant hb; settings: naltrexone 10 nM, 4 h, probe 1808258
Description: as §1

[7] = system: 5-HT receptor 1E, mRNA (HTR1E); test: Microarray gene expression in CD3+ lymphocytes, HTR1E; settings: 4 h, probe 1794095
Description: as §1

Compound: O=C1CC[C@@]2(O)[C@H]3Cc4ccc(O)c5c4[C@@]2(CCN3CC2CC2)[C@H]1O5 [NTX, morphinan-6-one,17-(cyclopropylmethyl)-4,5-epoxy-3,14-dihydroxy-(5α)]
- gene expression signal, LDN [1]: 94.00
- levels of mRNA for one or more of 5-HT receptor proteins [2]: increase the levels of mRNA
- gene expression signal, LDN ([3]; naltrexone 10 nM): 124.70
- gene expression signal, NTX ([3]; naltrexone 10 uM): 151.75
- gene expression signal, LDN ([4]; naltrexone 10 nM): 147.45
- gene expression signal, NTX ([4]; naltrexone 10 uM): 177.95
- gene expression signal, LDN ([5]; naltrexone 10 nM): 100.20
- gene expression signal, NTX ([5]; naltrexone 10 uM): 96.10
- gene expression signal, LDN [6]: 93.50
- gene expression signal, LDN ([7]; naltrexone 10 nM): 101.20
- gene expression signal, NTX ([7]; naltrexone 10 uM): 95.70
